# Data reported in US10969380B2, “Simultaneous detection of cannibalism and senescence as prognostic marker for cancer” (Institut Gustave-Roussy, priority 2012, dated 2021).
# Tests used:
# [1] = system: human primary keratinocytes (HEKn); assay: SA-β-Gal senescence assay in human primary keratinocytes; format: cell-based; details: HEKn after fifth passage; 20 μM Kaempferol, 24 hours
# Protocol: FIG. 12. Identification of entescence as a non-cell autonomous senescence. (A) Effects of P2Y2 inhibition on SA-β Gal activity of human primary keratinocytes. After the fifth passages, human primary keratinocytes were cultured during 24 hours in presence or in absence of 20 μM of P2Y2 inhibitor Kaempferol. The number of SA-β Gal positive single or cannibal cells per total number of cells examined (at least 300 per well) was recorded and frequencies of SA-β Gal positive were determined. Error bars represent means±SEM (n=3; *p <0.01). (B) Effects of P2Y2 inhibition on SA-β Gal activity detected after g-irradiation or mithoxantron treatment. […] Then as described above frequencies of SA-β Gal positive were determined (means±SEM; n=3; *p <0.01). […] As previously described, the number of SA-β Gal positive single or cannibal cells per total number of cells examined (at least 300 per well) was recorded (means±SEM; n=3; *p <0.01). […] P21WAF1 expression was also analyzed using antibody against p21^WAF1 (green). […] (F-H) Effects of P2Y2 depletion on DNA damage foci formation, p21^WAF1 expression and SA-β Gal activity detected after Δ133p53. After P2Y2 depletion, the percentage of Δ133p53 depleted cells showing positivity for γ-I-H2AX^+ or p21^WAF1 expression were determined by confocal microscopy (G,H) and analyzed for p Gal activity (Means±SEM; n=3; *P <0.01). […]
# [2] = system: HCT116 cells; assay: SA-β-Gal senescence assay in HCT116 cells; format: cell-based, human; details: 20 μM Kaempferol, 24 hours
# Protocol: FIG. 4. Cellular cannibalism leads to senescence. (A,B) Effects of cellular cannibalism on cell proliferation. After cell sorting, cell proliferation of TP53 or Δ133TP53 knocked down and TP53 knocked out single or cannibal cells were performed during 6 days. (C-H) Effects of cellular cannibalism on senescence induction. Cannibal cells mediated by TP53 knockout or Δ133TP53 knockdown were examined in EdU incorporation assay (C,D), in DNA damage response (E,F) and in SA-β-Gal assay (G,H). (C) Determination of EdU incorporation on cannibal cells induced by Δ133TP53 knockdown, or TP53 knockout. […] The number of EdU positive single or cannibal cells per total number of cells examined (at least 300 per well) was recorded. […] (F) Quantification of DNA damage foci in single and cannibal cells after TP53 or Δ133TP53 inactivation. The percentage of γ-H2AX^+ cells or p53BP1^+ cells were determined by confocal microscopy. […] (I) p21^WAF1 expression during coculture of Tp53^+/+ or TP53^−/− cells, P21^WAF1 expression was determined by immunoblot. […] (K) Quantification of p21^WAF1 expression in single and cannibal cells after TP53 or Δ133TP53 inactivation. The percentage of […]21WAF^+ cells in cannibal cells was determined by confocal microscopy. […] P21^WAF1 expression was determined by immunoblot. […] Quantification of SA-β Gal positive cells were realized as described above (n=3; means±SEM; *P <0.01). […]
smiles,measurement,setting,value
O=c1c(O)c(-c2ccc(O)cc2)oc2cc(O)cc(O)c12 [kaempferol],"senescence (frequency of senescent, SA-β-Gal-positive cannibal cells) during replicative stress",[1],strongly reduced senescence
same,"senescence (frequency of senescent, SA-β-Gal-positive cannibal cells) after treatment with IR or with MTX",[2],strongly reduced senescence
